In brackets after ≈: the same amount, converted by molar mass.
Assays:
Pseudomonas aeruginosa [1] = assay: Antimicrobial activity against Pseudomonas aeruginosa ATCC BAA427 after 24 hrs by standard microbroth dilution assay; format: functional
Aspergillus fumigatus = assay: Antimicrobial activity against Aspergillus fumigatus after 72 hrs by standard microbroth dilution assay; format: functional
Staphylococcus aureus [2] = assay: microbe, parasite or virus in culture; format: functional; conditions: ATCC 25923, 24 h
Description: (§1) Antimicrobial activity against Staphylococcus aureus ATCC 25923 after 24 hrs by standard microbroth dilution assay

Candida albicans = assay: Antimicrobial activity against Candida albicans after 48 hrs by standard microbroth dilution assay; format: functional
Klebsiella pneumoniae [3] = assay: microbe, parasite or virus in culture; format: functional; conditions: ATCC 27736, 24 h
Description: (§2) Antimicrobial activity against Klebsiella pneumoniae ATCC 27736 after 24 hrs by standard microbroth dilution assay

Sporothrix schenckii = assay: Antimicrobial activity against Sporothrix schenckii after 72 hrs by standard microbroth dilution assay; format: functional
Cryptococcus neoformans = assay: Antimicrobial activity against Cryptococcus neoformans after 72 hrs by standard microbroth dilution assay; format: functional
[4] = tested on: Trichophyton mentagrophytes; assay: Antimicrobial activity against Trichophyton mentagrophytes after 96 hrs by standard microbroth dilution assay; format: functional
Candida parapsilosis = assay: Antimicrobial activity against Candida parapsilosis after 48 hrs by standard microbroth dilution assay; format: functional; conditions: Lodderomyces parapsilosis
Escherichia coli [5] = assay: microbe, parasite or virus in culture; format: functional; conditions: ATCC 9637, 24 h
Description: (§3) Antimicrobial activity against Escherichia coli ATCC 9637 after 24 hrs by standard microbroth dilution assay

Escherichia coli [6] = conditions: ATCC 9637
Description: as §3

Klebsiella pneumoniae [7] = conditions: ATCC 27736
Description: as §2

Staphylococcus aureus [8] = conditions: ATCC 25923
Description: as §1

Pseudomonas aeruginosa [9] = tested on: Pseudomonas aeruginosa

Question: Which results are given for `Clc1ccc(CO/N=C(\Cn2ccnc2)c2ccc(Cl)cc2Cl)c(Cl)c1` [OXICONAZOLE]?
Answer: MIC (Pseudomonas aeruginosa [1]): > 50 µg/mL; MIC (Aspergillus fumigatus): 6.25 µg/mL (≈ 14.6 µM); MIC (Staphylococcus aureus [2]): 6.25 µg/mL (≈ 14.6 µM); MIC (Candida albicans): 12.5 µg/mL (≈ 29.1 µM); MIC (Klebsiella pneumoniae [3]): > 50 µg/mL; MIC (Sporothrix schenckii): 3.12 µg/mL (≈ 7.27 µM); MIC (Cryptococcus neoformans): 0.01 µg/mL (≈ 0.0233 µM); MIC [4]: 6.25 µg/mL (≈ 14.6 µM); MIC (Candida parapsilosis): 3.12 µg/mL (≈ 7.27 µM); MIC (Escherichia coli [5]): > 50 µg/mL

Question: `Clc1cccc(CO/N=C2\c3cccc(Cl)c3CCC2Cn2cncn2)c1` (centres undefined) was tested. Which MIC (Pseudomonas aeruginosa [1]) did it give?
Answer: > 50 µg/mL

Question: And the MIC (Aspergillus fumigatus)?
Answer: > 50 µg/mL

Question: And the MIC (Staphylococcus aureus [2])?
Answer: > 50 µg/mL

Question: What about the MIC (Candida albicans) of the same compound?
Answer: > 50 µg/mL

Question: What about the MIC (Klebsiella pneumoniae [3]) of the same compound?
Answer: > 50 µg/mL

Question: And the MIC (Sporothrix schenckii)?
Answer: > 50 µg/mL

Question: What about the MIC (Cryptococcus neoformans) of the same compound?
Answer: > 50 µg/mL

Question: What about the MIC [4] of the same compound?
Answer: > 50 µg/mL

Question: What about the MIC (Candida parapsilosis) of the same compound?
Answer: > 50 µg/mL

Question: What about the MIC (Escherichia coli [5]) of the same compound?
Answer: 6.25 µg/mL (≈ 15.6 µM)

Question: How did the MIC (Pseudomonas aeruginosa [1]) turn out when `c1ccc(CO/N=C2\c3ccccc3CCC2Cn2ccnc2)cc1` (centres undefined) was run?
Answer: > 50 µg/mL

Question: And the MIC (Aspergillus fumigatus)?
Answer: 50 µg/mL (≈ 151 µM)

Question: What about the MIC (Staphylococcus aureus [2]) of the same compound?
Answer: 6.25 µg/mL (≈ 18.9 µM)

Question: And the MIC (Candida albicans)?
Answer: > 50 µg/mL

Question: And the MIC (Klebsiella pneumoniae [3])?
Answer: 6.25 µg/mL (≈ 18.9 µM)

Question: What about the MIC (Sporothrix schenckii) of the same compound?
Answer: > 50 µg/mL

Question: And the MIC (Cryptococcus neoformans)?
Answer: > 50 µg/mL

Question: What about the MIC [4] of the same compound?
Answer: > 50 µg/mL

Question: And the MIC (Candida parapsilosis)?
Answer: > 50 µg/mL

Question: What about the MIC (Escherichia coli [5]) of the same compound?
Answer: 0.781 µg/mL (≈ 2.36 µM)

Question: For `Clc1cccc(CO/N=C2\c3cccc(Br)c3CCC2Cn2ccnc2)c1` (centres undefined), which MIC (Pseudomonas aeruginosa [1]) is on record?
Answer: > 50 µg/mL

Question: What about the MIC (Aspergillus fumigatus) of the same compound?
Answer: > 50 µg/mL

Question: What about the MIC (Staphylococcus aureus [2]) of the same compound?
Answer: 0.781 µg/mL (≈ 1.76 µM)

Question: What about the MIC (Candida albicans) of the same compound?
Answer: > 50 µg/mL

Question: And the MIC (Klebsiella pneumoniae [3])?
Answer: 1.56 µg/mL (≈ 3.51 µM)

Question: What about the MIC (Sporothrix schenckii) of the same compound?
Answer: > 50 µg/mL

Question: And the MIC (Cryptococcus neoformans)?
Answer: > 50 µg/mL

Question: And the MIC [4]?
Answer: > 50 µg/mL

Question: And the MIC (Candida parapsilosis)?
Answer: 50 µg/mL (≈ 112 µM)

Question: And the MIC (Escherichia coli [5])?
Answer: 0.391 µg/mL (≈ 0.879 µM)

Question: Which results are given for `Clc1cccc2c1CCC(Cn1ccnc1)/C2=N/OCc1ccccc1` (centres undefined)?
Answer: MIC (Pseudomonas aeruginosa [1]): > 50 µg/mL; MIC (Aspergillus fumigatus): 25 µg/mL (≈ 68.3 µM); MIC (Staphylococcus aureus [2]): 1.56 µg/mL (≈ 4.27 µM); MIC (Candida albicans): > 50 µg/mL; MIC (Klebsiella pneumoniae [3]): 6.25 µg/mL (≈ 17.1 µM); MIC (Sporothrix schenckii): > 50 µg/mL; MIC (Cryptococcus neoformans): > 50 µg/mL; MIC [4]: > 50 µg/mL; MIC (Candida parapsilosis): > 50 µg/mL; MIC (Escherichia coli [5]): 0.391 µg/mL (≈ 1.07 µM)

Question: Which MIC (Escherichia coli [6]) does the source give for GENTAMICIN here?
Answer: 0.18 µg/mL

Question: What about the MIC (Klebsiella pneumoniae [7]) of the same compound?
Answer: 0.78 µg/mL

Question: What about the MIC (Staphylococcus aureus [8]) of the same compound?
Answer: 6.25 µg/mL

Question: And the MIC (Pseudomonas aeruginosa [9])?
Answer: 25 µg/mL

Question: Which results are given for `Cc1cccc2c1CCC(Cn1cncn1)/C2=N/OCc1ccccc1` (centres undefined)?
Answer: MIC (Pseudomonas aeruginosa [1]): > 50 µg/mL; MIC (Aspergillus fumigatus): > 50 µg/mL; MIC (Staphylococcus aureus [2]): > 50 µg/mL; MIC (Candida albicans): > 50 µg/mL; MIC (Klebsiella pneumoniae [3]): > 50 µg/mL; MIC (Sporothrix schenckii): > 50 µg/mL; MIC (Cryptococcus neoformans): > 50 µg/mL; MIC [4]: > 50 µg/mL; MIC (Candida parapsilosis): > 50 µg/mL; MIC (Escherichia coli [5]): 25 µg/mL (≈ 72.2 µM)

Question: With `Cc1cccc2c1CCC(Cn1ccnc1)/C2=N/OCc1cccc(Cl)c1` (centres undefined) as the compound, how does the MIC (Pseudomonas aeruginosa [1]) read?
Answer: > 50 µg/mL

Question: And the MIC (Aspergillus fumigatus)?
Answer: 50 µg/mL (≈ 132 µM)

Question: What about the MIC (Staphylococcus aureus [2]) of the same compound?
Answer: 0.781 µg/mL (≈ 2.06 µM)

Question: And the MIC (Candida albicans)?
Answer: > 50 µg/mL

Question: And the MIC (Klebsiella pneumoniae [3])?
Answer: 1.56 µg/mL (≈ 4.11 µM)

Question: What about the MIC (Sporothrix schenckii) of the same compound?
Answer: > 50 µg/mL

Question: And the MIC (Cryptococcus neoformans)?
Answer: > 50 µg/mL

Question: What about the MIC [4] of the same compound?
Answer: > 50 µg/mL

Question: And the MIC (Candida parapsilosis)?
Answer: > 50 µg/mL

Question: What about the MIC (Escherichia coli [5]) of the same compound?
Answer: 0.391 µg/mL (≈ 1.03 µM)

Question: For `Fc1cccc2c1CCC(Cn1ccnc1)/C2=N/OCc1ccccc1` (centres undefined), which MIC (Pseudomonas aeruginosa [1]) is on record?
Answer: > 50 µg/mL

Question: What about the MIC (Aspergillus fumigatus) of the same compound?
Answer: > 50 µg/mL

Question: And the MIC (Staphylococcus aureus [2])?
Answer: 3.12 µg/mL (≈ 8.94 µM)

Question: And the MIC (Candida albicans)?
Answer: > 50 µg/mL

Question: What about the MIC (Klebsiella pneumoniae [3]) of the same compound?
Answer: 6.25 µg/mL (≈ 17.9 µM)

Question: What about the MIC (Sporothrix schenckii) of the same compound?
Answer: > 50 µg/mL

Question: And the MIC (Cryptococcus neoformans)?
Answer: > 50 µg/mL

Question: And the MIC [4]?
Answer: > 50 µg/mL

Question: And the MIC (Candida parapsilosis)?
Answer: > 50 µg/mL

Question: And the MIC (Escherichia coli [5])?
Answer: 0.781 µg/mL (≈ 2.24 µM)

Question: How did the MIC (Pseudomonas aeruginosa [1]) turn out when `Clc1cccc(CO/N=C2\c3ccccc3CCC2Cn2ccnc2)c1` (centres undefined) was run?
Answer: > 50 µg/mL

Question: And the MIC (Aspergillus fumigatus)?
Answer: 25 µg/mL (≈ 68.3 µM)

Question: And the MIC (Staphylococcus aureus [2])?
Answer: 1.56 µg/mL (≈ 4.27 µM)

Question: What about the MIC (Candida albicans) of the same compound?
Answer: > 50 µg/mL

Question: What about the MIC (Klebsiella pneumoniae [3]) of the same compound?
Answer: 3.12 µg/mL (≈ 8.54 µM)

Question: What about the MIC (Sporothrix schenckii) of the same compound?
Answer: > 50 µg/mL

Question: What about the MIC (Cryptococcus neoformans) of the same compound?
Answer: > 50 µg/mL

Question: What about the MIC [4] of the same compound?
Answer: > 50 µg/mL

Question: What about the MIC (Candida parapsilosis) of the same compound?
Answer: > 50 µg/mL

Question: And the MIC (Escherichia coli [5])?
Answer: 0.391 µg/mL (≈ 1.07 µM)

Question: For `Cc1cccc2c1CCC(Cn1cncn1)/C2=N/OCc1cccc(Cl)c1` (centres undefined), which MIC (Pseudomonas aeruginosa [1]) is on record?
Answer: > 50 µg/mL

Question: And the MIC (Aspergillus fumigatus)?
Answer: > 50 µg/mL

Question: What about the MIC (Staphylococcus aureus [2]) of the same compound?
Answer: 6.25 µg/mL (≈ 16.4 µM)

Question: And the MIC (Candida albicans)?
Answer: > 50 µg/mL

Question: What about the MIC (Klebsiella pneumoniae [3]) of the same compound?
Answer: > 50 µg/mL

Question: What about the MIC (Sporothrix schenckii) of the same compound?
Answer: > 50 µg/mL

Question: And the MIC (Cryptococcus neoformans)?
Answer: > 50 µg/mL

Question: And the MIC [4]?
Answer: > 50 µg/mL

Question: What about the MIC (Candida parapsilosis) of the same compound?
Answer: > 50 µg/mL

Question: And the MIC (Escherichia coli [5])?
Answer: 6.25 µg/mL (≈ 16.4 µM)

Question: Which MIC (Pseudomonas aeruginosa [1]) does the source give for `Fc1cccc2c1CCC(Cn1cncn1)/C2=N/OCc1ccccc1` (centres undefined) here?
Answer: > 50 µg/mL

Question: And the MIC (Aspergillus fumigatus)?
Answer: > 50 µg/mL

Question: And the MIC (Staphylococcus aureus [2])?
Answer: > 50 µg/mL

Question: And the MIC (Candida albicans)?
Answer: > 50 µg/mL

Question: And the MIC (Klebsiella pneumoniae [3])?
Answer: > 50 µg/mL

Question: And the MIC (Sporothrix schenckii)?
Answer: > 50 µg/mL

Question: And the MIC (Cryptococcus neoformans)?
Answer: > 50 µg/mL

Question: What about the MIC [4] of the same compound?
Answer: > 50 µg/mL

Question: What about the MIC (Candida parapsilosis) of the same compound?
Answer: > 50 µg/mL

Question: What about the MIC (Escherichia coli [5]) of the same compound?
Answer: 25 µg/mL (≈ 71.3 µM)

Question: For `c1ccc(CO/N=C2\c3ccccc3CCC2Cn2cncn2)cc1` (centres undefined), which MIC (Pseudomonas aeruginosa [1]) is on record?
Answer: > 50 µg/mL

Question: What about the MIC (Aspergillus fumigatus) of the same compound?
Answer: > 50 µg/mL

Question: What about the MIC (Staphylococcus aureus [2]) of the same compound?
Answer: > 50 µg/mL

Question: And the MIC (Candida albicans)?
Answer: > 50 µg/mL

Question: And the MIC (Klebsiella pneumoniae [3])?
Answer: > 50 µg/mL

Question: And the MIC (Sporothrix schenckii)?
Answer: > 50 µg/mL

Question: What about the MIC (Cryptococcus neoformans) of the same compound?
Answer: > 50 µg/mL

Question: What about the MIC [4] of the same compound?
Answer: > 50 µg/mL

Question: What about the MIC (Candida parapsilosis) of the same compound?
Answer: > 50 µg/mL

Question: And the MIC (Escherichia coli [5])?
Answer: 25 µg/mL (≈ 75.2 µM)

Reference: ChEMBL document CHEMBL1154454, “Tetrahydronaphthyl azole oxime ethers: the conformationally rigid analogues of oxiconazole as antibacterials” (2009)
